The data set concerns rat chronic carcinogenicity bioassay, TD50. Nature of the data set: DSSTox (CPDBAS) Carcinogenic Potency Database Summary Rat Bioassay Results. The following applies: for outcome: TD50_Rat_Note: no positive results; for Potency: stronger effect = lower value. In a few lines:
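The activity score maps log10(1/TD50_Rat_mmol) linearly onto 1–100; actives without a computed TD50, such as mixtures, receive 50. Source data are chronic rat carcinogenicity tests, using the most positive experiment for each sex.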

[1] abbreviates: TargetSites_Rat_Female: no positive results.
The mark [2] stands for this setting: TD50_Rat_Note: TD50 is harmonic mean of more than one positive test.
Where [3] appears, read: TargetSites_Rat_BothSexes: all tumor bearing animals.
[4] abbreviates: TD50_Rat_Note: TD50 is harmonic mean of more than one positive test, TargetSites_Rat_Female: liver.

The values that follow come from PubChem BioAssay AID1208 (EPA DSSTox, 2008).

The structures appear in SMILES notation. Active and inactive are the calls of the source.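 How the source made its calls: active means at least one rat sex group has a carcinogenic potency value and tumor site recorded; inconclusive means only rat studies were judged inadequate by the national testing program; inactive means no potency or tumor site, with negative rat experiments.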

Consider `O=S(=O)(c1ccc(Cl)cc1)c1ccc(Cl)cc1`, for which the outcome under setting [1] was “inactive; no positive results”.

With `O=NN1CC(=O)NC1=O`, the Potency (TD50_Rat_Note: TD50 is harmonic mean of more than one positive test, TargetSites_Rat_Female: all tumor bearing animals) was 43.8 mg/kg/day.

Take `Cc1cccc(N=Nc2ccc(N(C)C)cc2)c1`: under setting [2], the Potency is 3.28 mg/kg/day.

For the molecule `CCOC(N)=O`, under setting [3], the Potency was 41.3 mg/kg/day.

As to `CN(C)Nc1nc(-c2ccc([N+](=O)[O-])o2)cs1`, the Potency (TD50_Rat_Note: harmonic mean of TD50 includes a value for upper 99% confidence limit from study with 100% tumor incidence but no lifeta, TargetSites_Rat_Female: hematopoietic system, mammary gland) is 0.41 mg/kg/day.

Turning to `FC(Cl)(Cl)Cl`, the outcome under setting [1] is “inactive; no positive results”.

With `O=C(O)C(Cl)Cl`, the Potency under setting [2] was 161 mg/kg/day.

In the case of `NC(=S)Nc1ccccc1`, under setting [1], the outcome was “inactive; no positive results”.

As for `C[C@@H]1Cc2c(Cl)cc(C(=O)N[C@@H](Cc3ccccc3)C(=O)O)c(O)c2C(=O)O1`, under “TD50_Rat_Note: TD50 is harmonic mean of more than one positive test, TargetSites_Rat_Female: kidney, mammary gland”, the Potency was 0.136 mg/kg/day.

Take `N#[N+]c1cc(CCN)ccc1[O-]`: the Potency is 37.6 mg/kg/day.

For the molecule `CCCCCCc1ccc(O)cc1O`, the outcome under setting [1] was “inactive; no positive results”.

Consider `Nc1c(F)c(N)c(F)c(F)c1F`, for which the outcome is “inactive; no positive results”.

As to `ClC(Cl)(Cl)C(Cl)(Cl)Cl`, under setting [1], the Potency was 55.4 mg/kg/day.

As for `CCN(N=O)C(=O)NCC(C)=O`, the Potency (TD50_Rat_Note: TD50 is harmonic mean of more than one positive test, harmonic mean of TD50 includes a value for upper 99% confidence li, TargetSites_Rat_Female: large intestine, lung, mammary gland, nervous system, skin, thyroid gland, uterus) was 0.181 mg/kg/day.

Turning to `ClC(Cl)Br`, the Potency (TD50_Rat_Note: TD50 is harmonic mean of more than one positive test, greater than ten-fold variation among TD50 values for positive res, TargetSites_Rat_Female: kidney, large intestine, liver) was 72.5 mg/kg/day.

Regarding `CC(=O)Nc1ccc(-c2ccc(F)cc2)cc1`, the Potency is 1.01 mg/kg/day.

Regarding `O=NN1CCCC1c1ccc[n+]([O-])c1` (centres undefined), the Potency (TD50_Rat_Note: TD50 is harmonic mean of more than one positive test, TargetSites_Rat_Female: esophagus, nasal cavity) was 0.876 mg/kg/day.

With `Clc1cnc(Oc2ccc(Oc3ncc(Cl)cc3Cl)cc2)c(Cl)c1`, the outcome is “inactive; no positive results”.

Regarding `Cc1cc(Cc2ccc(N)c(C)c2)ccc1N`, the Potency under setting [4] was 7.38 mg/kg/day.

Turning to `CN(CCCC(=O)O)N=O`, the Potency was 0.982 mg/kg/day.

Take `Nc1nc(N)nc(-c2cc(Cl)ccc2Cl)n1`: the outcome is “inactive; no positive results”.

For `OCl`, the outcome under setting [1] is “inactive; no positive results”.

Consider `COC(=O)C1=C(C)NC(C)=C(C(=O)OCCc2ccc(N3CCN(C(c4ccccc4)c4ccccc4)CC3)cc2)C1c1cccc([N+](=O)[O-])c1` (centres undefined), for which the outcome under setting [1] is “inactive; no positive results”.

Turning to `O=S(=O)(O)c1ccc(N=Nc2c(O)ccc3cc(S(=O)(=O)O)ccc23)cc1`, the outcome under setting [1] is “inactive; no positive results”.

For `O=NN1CCCN(N=O)CC1`, for the setting “TD50_Rat_Note: TD50 is harmonic mean of more than one positive test, TargetSites_Rat_Female: esophagus, liver, nasal cavity, oral cavity”, the Potency is 0.0615 mg/kg/day.

As to `CN(C)[C@@H]1C(=O)C(C(N)=O)=C(O)[C@@]2(O)C(=O)C3=C(O)c4c(O)cccc4[C@@](C)(O)[C@H]3C[C@@H]12`, the outcome under setting [1] is “inactive; no positive results”.

With `Nc1cccc(N)c1`, the outcome is “inactive; no positive results”.

For `O`, under setting [1], the outcome was “inactive; no positive results”.

For `O=c1cc[nH]c(=S)[nH]1`, the Potency (TD50_Rat_Note: TD50 is harmonic mean of more than one positive test, TargetSites_Rat_Female: thyroid gland) was 11.9 mg/kg/day.

For the molecule `Cc1ccc(-c2cc(C(F)(F)F)nn2-c2ccc(S(N)(=O)=O)cc2)cc1`, the outcome is “inactive; no positive results”.

Regarding `O=[N+]([O-])c1ccc2c(c1)Cc1ccccc1-2`, the Potency was 0.285 mg/kg/day.

On to `CC1CN1P(=O)(N1CC1C)N1CC1C` (centres undefined), for which the Potency was 4.46 mg/kg/day.

With `O=C1c2ccccc2C(=O)c2c(O)cccc21`, the Potency under setting [2] is 93.5 mg/kg/day.

As to `O=P1(NCCCl)OCCCN1CCCl` (centres undefined), for the setting “TD50_Rat_Note: positive test results only by intraperitoneal or intravenous injection, TargetSites_Rat_Female: uterus”, the Potency is 0.739 mg/kg/day.

As for `Cc1c(N)cccc1N`, the outcome under setting [1] was “inactive; no positive results”.

In the case of `Nc1ccc(N(CCO)CCO)cc1`, under setting [1], the outcome was “inactive; no positive results”.

For `CN(C)C(=S)SSC(=S)N(C)C`, under setting [1], the outcome is “inactive; no positive results”.

On to `CC(C)CN(N=O)C(N)=O`, for which, where the note is “TargetSites_Rat_Female: small intestine”, the Potency is 4.73 mg/kg/day.

Regarding `[N-]=[N+]=[N-]`, under setting [1], the outcome was “inactive; no positive results”.

On to `CN[C@H]1CC[C@@H](c2ccc(Cl)c(Cl)c2)c2ccccc21`, for which, under setting [1], the result was inactive.

`O=C(NCC1CCCCN1)c1cc(OCC(F)(F)F)ccc1OCC(F)(F)F` (centres undefined): the outcome under setting [1] is “inactive; no positive results”.

Take `CC1(C)[C@H](C(=O)O[C@H](C#N)c2cccc(Oc3ccccc3)c2)[C@@H]1C=C(Br)Br`: under setting [1], the outcome is “inactive; no positive results”.

Turning to `FC(F)=C(F)F`, the Potency (TD50_Rat_Note: TD50 is harmonic mean of more than one positive test, TargetSites_Rat_Female: hematopoietic system, kidney, liver, vascular system) is 107 mg/kg/day.

Consider `C=CC=O`, for which the outcome under setting [1] is “inactive; no positive results”.

Take `C[C@@H]1C/C=C/C=C/C=C/C=C/[C@H](O[C@@H]2O[C@H](C)[C@@H](O)[C@H](N)[C@@H]2O)C[C@@H]2O[C@](O)(C[C@@H](O)C[C@H]3O[C@@H]3/C=C/C(=O)O1)C[C@H](O)[C@H]2C(=O)O`: under setting [1], the outcome is “inactive; no positive results”.

As for `C1CO1`, the Potency (TD50_Rat_Note: TD50 is harmonic mean of more than one positive test, greater than ten-fold variation among TD50 values for positive res, TargetSites_Rat_Female: nervous system, stomach) is 21.3 mg/kg/day.

On to `O=NN1CSCSC1`, for which the result under setting [1] was inactive.

With `C[C@]12CC[C@H](O)CC1=CC[C@@H]1[C@@H]2CC[C@]2(C)C(=O)CC[C@@H]12`, under setting [4], the Potency is 83.5 mg/kg/day.

Consider `Nc1ccccc1`, for which the outcome is “inactive; no positive results”. In addition, under “TD50_Rat_Note: TD50 is harmonic mean of more than one positive test, greater than ten-fold variation among TD50 values for positive res, TargetSites_Rat_Female: peritoneal cavity”, the Potency was 269 mg/kg/day.

On to `c1ccoc1`, for which the Potency (TD50_Rat_Note: TD50 is harmonic mean of more than one positive test, TargetSites_Rat_Female: hematopoietic system, liver) was 0.396 mg/kg/day.

As for `OCCN(CCO)CCO`, the outcome under setting [1] is “inactive; no positive results”.

On to `O=C(O)CCC(=O)O`, for which, under setting [1], the outcome was “inactive; no positive results”.

For `COc1ccccc1[N+](=O)[O-]`, the Potency (TD50_Rat_Note: TD50 is harmonic mean of more than one positive test, greater than ten-fold variation among TD50 values for positive res, TargetSites_Rat_Female: hematopoietic system, kidney, large intestine, urinary bladder) is 15.6 mg/kg/day.

For the molecule `O=P(OCC(Br)CBr)(OCC(Br)CBr)OCC(Br)CBr` (centres undefined), the Potency (TD50_Rat_Note: TD50 is harmonic mean of more than one positive test, TargetSites_Rat_Female: kidney) is 3.83 mg/kg/day.

`CN1[C@@H]2CC(OC(=O)[C@@H](CO)c3ccccc3)C[C@H]1[C@@H]1O[C@@H]12` (some centres undefined): under setting [1], the outcome was “inactive; no positive results”.

For the molecule `O=[N+]([O-])c1cccc2ccccc12`, the outcome under setting [1] was “inactive; no positive results”.

As for `CCCC[C@H](C)[C@@H](OC(=O)C[C@H](CC(=O)O)C(=O)O)[C@@H](C[C@H](C)C[C@@H](O)CCCC[C@@H](O)C[C@H](O)[C@H](C)N)OC(=O)C[C@H](CC(=O)O)C(=O)O`, the Potency (TD50_Rat_Note: TD50 is harmonic mean of more than one positive test, TargetSites_Rat_Female: no positive results) is 1.5 mg/kg/day.

For `CN(C)N`, under setting [1], the outcome was “inactive; no positive results”.

Take `Cc1ccc(C)c(C)c1`: under setting [1], the Potency was 4350 mg/kg/day.

For `CCCN(CCC)c1c([N+](=O)[O-])cc(C(F)(F)F)cc1[N+](=O)[O-]`, the outcome under setting [1] is “inactive; no positive results”.

As for `CC(C)(Oc1ccc(C2CC2(Cl)Cl)cc1)C(=O)O` (centres undefined), where the note is “TD50_Rat_Note: TD50 is harmonic mean of more than one positive test, harmonic mean of TD50 includes a value for upper 99% confidence li, TargetSites_Rat_Female: stomach”, the Potency is 1.97 mg/kg/day.

Turning to `FC(F)Cl`, the outcome under setting [1] was “inactive; no positive results”.

Turning to `CN(N=O)C(=O)NCCC[C@H](N)C(=O)O`, the Potency (TD50_Rat_Note: positive test results only by intraperitoneal or intravenous injection, TD50 is harmonic mean of more than one positive, TargetSites_Rat_Female: kidney, mammary gland, pancreas, skin) was 0.787 mg/kg/day.

For `CCCCCCCCCC[N+](C)(C)[O-]`, the outcome under setting [1] was “inactive; no positive results”.

Regarding `CC(Cl)(Cl)Cl`, the outcome under setting [1] is “inactive; no positive results”.

Turning to `S=C([S-])NCCNC(=S)[S-].[Zn+2]`, under setting [1], the outcome is “inactive; no positive results”. Moreover, the Potency under setting [3] was 255 mg/kg/day.

Take `CCCCCN(N=O)C(=N)N[N+](=O)[O-]`: the outcome is “inactive; no positive results”.

For `CCC(Br)(CC)C(=O)NC(N)=O`, the outcome under setting [1] is “inactive; no positive results”.

Turning to `CN(C)c1ccc(N=Nc2ccccc2)cc1`, the Potency (TargetSites_Rat_Female: liver) is 3.31 mg/kg/day.

With `CCOc1ccc2c(c1)C(C)=CC(C)(C)N2`, under setting [1], the outcome was “inactive; no positive results”.

Consider `Oc1ccccc1-c1ccccc1`, for which the Potency is 232 mg/kg/day. The Potency (TD50_Rat_Note: TD50 is harmonic mean of more than one positive test, greater than ten-fold variation among TD50 values for positive res, TargetSites_Rat_Female: urinary bladder) was 672 mg/kg/day.

Regarding `CCC[N+](=O)[O-]`, the outcome under setting [1] is “inactive; no positive results”.

Take `O=C1CCCCCN1`: the outcome under setting [1] is “inactive; no positive results”.

For `O=NN1CCCCC1C(=O)O` (centres undefined), under setting [1], the outcome is “inactive; no positive results”.

`CN(C)CNc1nnc(/C=C/c2ccc([N+](=O)[O-])o2)o1`: where the note is “TargetSites_Rat_Female: lung, mammary gland, small intestine, stomach”, the Potency was 22.4 mg/kg/day.

Take `NC1=NC(=O)C(c2ccccc2)O1` (centres undefined): under setting [1], the outcome was inactive.
